In patent US6057317A, “Heterocyclic compounds” (Adir et Compagnie, priority 1997, dated 2000):

Columns and labels:
imidazoline I1 receptor = experiment: Measurement of in vitro affinity for the I1 receptor (radioligand displacement); type: binding; details: [3H] clonidine + 10 μM noradrenaline; bovine lateral reticulated nucleus
Experimental: (§1) The profile of binding to the imidazoline I1 and I2 receptors was determined for the compounds of the invention by evaluating the ability of those compounds to displace specific radioligands of the receptors in question.
(§2) The following Table indicates the radioligand used to label each receptor, the compound and the concentration selected to determine the non-specific fraction, and the tissue selected. […]
10 μM reticulated nucleus

imidazoline I2 receptor = experiment: Measurement of in vitro affinity for the I2 receptor (radioligand displacement); type: binding; details: [3H] idazoxan + 10 μM noradrenaline; renal cortex of rabbit
Experimental: as §1, §2

SHR rats = experiment: Antihypertensive activity in conscious rats; type: in vivo, rat; details: oral, dose of 15 mg/kg
Experimental: The tests were carried out in SHR rats. The animals are anaesthetised. A heparinised catheter is introduced into the left carotid artery and connected to a recording apparatus so as to measure the systolic and diastolic arterial pressure and the heart rate. The animals are returned to their cage and the tests are carried out after 24 hours.
The parameters to be measured stabilise during a period of at least 30 minutes, during which a maximum of 1.5 ml of saline solution is injected in such a manner as to optimise the measurements. Only animals whose arterial pressure is higher than or equal to 170 mmHg are included in the study.
The test compounds of the carrier are administered orally and the measurements are carried out before the treatment and every ten minutes after treatment, for 4 hours, and then 8 and 24 hours after treatment.

In the case of Cc1ccc2c(c1)N(C)CC(C1=NCCN1)O2 (stereo not drawn) [Example 2, 2-(4,5-Dihydro-1H-2-imidazolyl)-4,6-dimethyl-3,4-dihydro-2H-1,4-benzoxazineoxalate], the Ki (imidazoline I1 receptor) is reported as 22 nM, the Ki (imidazoline I2 receptor) is reported as 2 nM and the “effect on arterial pressure” value (SHR rats) is reported as “allowed the arterial pressure to be normalized”.
